Assay results as given in patent US20240368664A1, “LIVE YEAST BIOSENSORS AND METHODS OF USE THEREOF” (priority 2021, published 2024).
Like-named read-outs stand apart in the source and are kept apart here. Residues, ends and D or L forms follow the SMILES beside them. No end group written: not given here.

Tests used:
[1] = tested on: AfuSte2; assay type: cell-based, Aspergillus fumigatus; conditions: nasal swab solution; 30° C. and room temperature
Method: (left) and room temperature (right).
To determine whether the yeast biosensor can detect the targeted pathogen analyte in the presence of the nasal swab solution. The yeast biosensor's ability to detect its cognate fungal biomarker in the presence of the nasal swab solution was tested. […] This experiment involved a biosensor containing an Ste2 homolog from Aspergillus fumigatus (AfuSte2) that produces lycopene in response to its cognate pheromone peptide (AfuPep). […] Experiments were carried out at yeast standard growth conditions, which include at 30° C.; experiments also needed to be conducted at at-home-like temperatures to ensure that the biosensor is viable and active in these settings. When incubated at room temperature, the yeast still produced an observable difference in lycopene compared to the water negative control (FIG. 24).

[2] = tested on: AfuSte2 (first member), ScSte2 (second member); assay type: cell-based, A. fumigatus
[3] = tested on: AfuSte2; assay type: cell-based, A. fumigatus
[4] = tested on: AfuSte2
[5] = tested on: AfuSte2; assay type: cell-based, A. fumigatus; remark: listed apart in the source
[6] = tested on: fungal cognate receptors; assay type: cell-based
[7] = tested on: CaSte2 with protease CaBar1; conditions: for Hill Slope: CaSte2 + CaBar1 (yBB02), Hill function best-fit ± standard error; for cleavage by CaBar1 protease: judged from CaSte2 activation with/without CaBar1; for EC50: biosensor with protease CaBar1 under intermediate pRPL18B promoter, 10-h incubation
[8] = tested on: CaSte2; conditions: CaSte2 (yTC384), no protease; Hill function best-fit ± standard error
[9] = tested on: CaSte2 with protease CaBar1
[10] = target: C. albicans pheromone peptide (CaPep) (Candida albicans); experiment: cell-based or functional assay
[11] = tested on: CaSte2 with protease CaBar1; conditions: read-out: "EC50" of the first response phase; biphasic dose-response, phase treated as separate Hill fit
[12] = tested on: CaSte2; experiment: CaSte2 biosensor with lycopene readout, without CaBar1 (yTC646); conditions: -CaBar1 strain; 50-300 nM peptide; 1-h preincubation, 7-h incubation
[13] = target: T1, Schizosaccharomyces pombe pheromone GPCR SpSte2 (Schizosaccharomyces pombe) (UniProt Q00619); experiment: cell-based or functional assay
T1 sequence: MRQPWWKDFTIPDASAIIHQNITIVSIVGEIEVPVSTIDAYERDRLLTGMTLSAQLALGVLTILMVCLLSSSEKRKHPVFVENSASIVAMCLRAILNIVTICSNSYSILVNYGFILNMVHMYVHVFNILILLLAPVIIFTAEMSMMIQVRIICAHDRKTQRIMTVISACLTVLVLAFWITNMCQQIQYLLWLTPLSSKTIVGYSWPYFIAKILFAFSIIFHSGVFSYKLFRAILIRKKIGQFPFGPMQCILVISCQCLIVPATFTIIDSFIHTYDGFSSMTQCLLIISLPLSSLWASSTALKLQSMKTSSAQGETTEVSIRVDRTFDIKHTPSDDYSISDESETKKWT

[14] = tested on: live yeast biosensor
[15] = target: S. cerevisiae pheromone peptide (ScPep) (Saccharomyces cerevisiae); experiment: cell-based or functional assay
[16] = target: S. japonicus pheromone peptide (SjPep) (Schizosaccharomyces japonicus); experiment: cell-based or functional assay
[17] = tested on: SjSte2 with peptide proteases; assay type: cell-based, Schizosaccharomyces japonicus; conditions: read-out: apparent EC50
[18] = tested on: A. clavatus GPCR; assay type: cell-based; conditions: 40 μM peptide
Method: (§1) FIGS. 6A-6B show Aspergillus spp peptide cross-reactivity with Aspergillus spp GPCRs. […] The test concentration was set at 40 μM of a given peptide ligand.
(§2) Next, 13 GPCRs of all genome-mined Aspergillus species, including A. fumigatus from Example 1 and S. cerevisiae, along with inducible fluorescent readout were integrated into optimized parent strain. S. cerevisiae was included to test cross-reactivity with S. cerevisiae GPCR and peptide, since this peptide/GPCR pair will be used for building multi-cellular amplification communities. Then, each strain was activated with all Aspergillus peptides and S. cerevisiae peptide (FIG. 6A). Most of the Aspergillus GPCRs were responsive to at least one peptide, except A. terreus, A. flavus/A. oryzae (same GPCR sequence), A. niger and A. nidulans which were not responsive to any tested peptide. […] The majority of peptides have the same sequence (A. fischeri, A. fumigatus, A. lentulus, A. novofumigatus, A. udagawae and A. viridinutans) and the other active peptides differ only in the third amino acid position from N-terminus (A. clavatus, A. flavus and A. oryzae).

[19] = target: T2, S. cerevisiae GPCR (Saccharomyces cerevisiae, UniProt D6VTK4); experiment: Aspergillus spp peptide/GPCR orthogonality matrix, S. cerevisiae GPCR; assay type: cell-based; conditions: 40 μM peptide
T2 sequence (D6VTK4 whole entry, looked up): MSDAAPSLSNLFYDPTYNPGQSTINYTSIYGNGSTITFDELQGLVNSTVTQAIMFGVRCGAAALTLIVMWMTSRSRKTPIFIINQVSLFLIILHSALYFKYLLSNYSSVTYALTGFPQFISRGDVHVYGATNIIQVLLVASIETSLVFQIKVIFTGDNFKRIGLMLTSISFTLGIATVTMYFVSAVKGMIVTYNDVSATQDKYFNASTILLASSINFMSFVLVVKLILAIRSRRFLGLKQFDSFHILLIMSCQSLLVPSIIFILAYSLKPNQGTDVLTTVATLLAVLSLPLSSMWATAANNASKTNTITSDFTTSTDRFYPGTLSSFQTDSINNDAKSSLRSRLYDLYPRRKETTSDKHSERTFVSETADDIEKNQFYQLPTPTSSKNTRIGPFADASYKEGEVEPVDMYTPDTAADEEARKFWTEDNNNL
Method: as §1, §2

[20] = target: S. octosporus pheromone peptide (SoPep) (Schizosaccharomyces octosporus); experiment: cell-based or functional assay
[21] = fine-tuned optimized strain (yTC453/pDR01)
[22] = natural signaling pathway (yMJ194/pDR01)

## CC(C)C[C@H](NC(=O)[C@H](Cc1c[nH]cn1)NC(=O)[C@H](CS)NC(=O)[C@@H](N)Cc1c[nH]c2ccccc12)C(=O)N1CCC[C@H]1C(=O)NCC(=O)N[C@@H](CCC(N)=O)C(=O)NCC(=O)N[C@@H](CS)C(=O)O [AfuPep] (H-WCHLPGQGC-OH; N-terminus and C-terminus assumed)
[1]
  lycopene production in the presence of human biospecimens: produces lycopene only when AfuPep is present
[2]
  fold lower AfuPep concentration at which receiver strain responds vs sender strain: 8 fold
[3]
  fluorescence intensity relative to background fluorescence: two-fold
[4]; AfuSte2 on plasmid, inducible mCherry in optimized strain, FIG. 1B
  fold change of fluorescence readout compared to background: around 4,000 fold
[4]; [21]
  EC50: ~40 nM
  activation fold change: 2,900 fold
  basal expression: practically zero
  maximal activation: ~2,900 A.U.
[4]; [22]
  EC50: ~10 nM
  activation fold change: 19 fold
  maximal activation: ~450 A.U.
[4]; older strain with natural signaling pathway (yMJ194/pDR01)
  basal expression: ~20 A.U.
[4]; read-out: EC50 value (concentration of peptide required for half-maximal activation), AfuSte2 on plasmid, inducible mCherry in optimized strain, FIG. 1B
  EC50: ~100 nM
[5]
  LoD / color detection limit in liquid culture: 50 nM
  limit of detection (LoD) in liquid culture: ~30 nM
  time to faint visible color in culture pellets: one hour
  time to obvious color change in liquid culture: two hours
[6]
  activation of fungal cognate receptors by AfuPep: nor did AfuPep activate fungal cognate receptors

## CC(C)C[C@H](NC(=O)[C@H](CCCNC(=N)N)NC(=O)[C@H](Cc1ccccc1)NC(=O)CN)C(=O)N[C@H](C(=O)N[C@@H](CC(N)=O)C(=O)N[C@@H](Cc1ccccc1)C(=O)NCC(=O)N[C@@H](Cc1ccc(O)cc1)C(=O)N[C@@H](Cc1ccccc1)C(=O)N[C@@H](CCC(=O)O)C(=O)N1CCC[C@H]1C(=O)N[C@@H](C)C(=O)O)[C@@H](C)O [CaPep13A]
[7]
  Hill Slope: 0.94 ± 0.06
  cleavage by CaBar1 protease: cleavable
[7]; listed as GFRLTNFGYFEPA
  cleavage by CaBar1 protease: specifically cleaved
[8]
  Hill Slope: 0.81 ± 0.04
[9]; +CaBar1 strain, lycopene, 1-h preincubation before adding peptides, 8-h incubation
  EC50: 1000 nM
[9]; liquid culture, same peptide concentrations, 1-h preincubation, 8-h incubation (FIG. 37)
  effect of CaBar1 on color onset, lycopene readout: diminishes color onset

## Candida albicans Bar1 aspartyl protease (CaBar1) (enzyme)
[10]
  shift of apparent EC50 on the cognate GPCR with the protease co-expressed (order of magnitude): 1

## GARLTNFGYFEPA [CaPep2A13A]
[7]
  Hill Slope: 0.86 ± 0.10
  EC50: ~70 nM
  cleavage by CaBar1 protease: non-cleavable
[8]
  Hill Slope: 1.2 ± 0.1
[11]
  EC50: ~0.3 nM

## GARLTNFGYFEPG [CaPep2A]
[12]
  color development in yeast pellets: robust orange color development
[7]
  Hill Slope: 1.6 ± 0.3
  EC50: ~40 nM
  cleavage by CaBar1 protease: does not cleave
[8]
  Hill Slope: 1.4 ± 0.3
[11]
  EC50: ~1 nM

## S. pombe pheromone peptide (SpPep)
[13]
  apparent EC50, ymTurquoise2, strain co-expressing SpSxa2: 100000 nM

## SDS
[14]
  concentration that does not impact the vitality and function of the live yeast biosensor: up to 0.01%

## Saccharomyces cerevisiae Bar1 aspartyl protease (ScBar1) (from UniProt P12630 25-587) (enzyme)
[15]
  shift of apparent EC50 on the cognate GPCR with the protease co-expressed (order of magnitude): 1

## Schizosaccharomyces japonicus serine carboxypeptidase Sxa2 (SjSxa2) (enzyme)
[16]
  shift of apparent EC50 on the cognate GPCR with the protease co-expressed (order of magnitude): 1

## Tween20
[14]
  concentration that does not impact the vitality and function of the live yeast biosensor: up to 0.05%

## VSDRVKQMLSHWWNERNPDTANL [SjPep]
[17]
  EC50: > 100000 nM

## WCELPGQGC [A. clavatus peptide]
[18]
  response of A. clavatus GPCR: strongest response

## WCWLPGQGC [A. terreus peptide, A. terreus pheromone peptide]
[19]
  cross-reaction with S. cerevisiae GPCR: cross-reacted

B1: Schizosaccharomyces octosporus serine carboxypeptidase Sxa2 (SoSxa2) (enzyme)
chain: MNLAVHVLLLSFLLYTVHSFPAYPPYPIYPRSSLNSSNASSVPIPQPSYNSSSKAMNPDLVTSLPEYSGSLPELYSGYLSAENFKQIFYTFAPAITPTDKFIVWLQGGPGCAGTLGFFSENGPIILDPNHQTPQDNPNSWTRFANMMWIDQPFGTGYSQGSPLASTVSIATSDFIQTLKSFYAKFPEMKEKELYLVGESYGSVWGAYFAQALRSDPELHAIPFGGLGIISGLLSDYETQNTITASMWLDHVNKMGLYYTNESAEVSTFFAAKNQQCGYAEVLERMQFPAEQTPIPKPRVNLTNSFSKKKRQADSDSDSGNIKEAFQMITDCDTYTLTDFLLYLKNHCMITYDITLDCSFNSNNDPLTTYLNRKDVQKQLHAIHVESALTSSKGIFGNGCNYDVYGDIVKNGAPSILEEAIPELVQNYKVSFLAGALDFQLLWTGSLLALQNTTWNGWQGFQEIPDLNSPFGFTLDERNLAFTLSNKVGHMAPSKDPSMVIDWLQKTLLG
[20]
  shift of apparent EC50 on the cognate GPCR with the protease co-expressed (orders of magnitude): 1.5
